Earlier results, collected in patent EP4088834A1, “INORGANIC COATED SAND” (Kao Corporation, priority 2020, dated 2021).

Settings: 25°C

For `[O]=[Ca]` [calcium oxide], the solubility in water is given as 1190 µg/mL.
